Literature values in patent US9498462B2, “Doxepin trans isomers and isomeric mixtures and methods of using the same to treat sleep disorders” (Pernix Sleep Inc., priority 2006, dated 2016).

Assays:
melatonin MT2 receptor = target: T1, melatonin MT2 receptor (Homo sapiens, UniProt P49286)
T1 sequence (P49286 1-362): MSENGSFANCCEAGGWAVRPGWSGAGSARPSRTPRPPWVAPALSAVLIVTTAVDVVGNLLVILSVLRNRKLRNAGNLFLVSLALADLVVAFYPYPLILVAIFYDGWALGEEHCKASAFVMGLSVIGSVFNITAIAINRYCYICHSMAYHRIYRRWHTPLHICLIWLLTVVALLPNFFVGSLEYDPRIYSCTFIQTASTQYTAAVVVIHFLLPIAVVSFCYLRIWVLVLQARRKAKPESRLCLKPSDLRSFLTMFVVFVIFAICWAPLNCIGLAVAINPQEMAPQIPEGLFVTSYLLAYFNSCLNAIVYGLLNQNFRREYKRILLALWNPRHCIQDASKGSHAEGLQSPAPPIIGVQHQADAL

melatonin MT1 receptor = melatonin MT1 receptor (Homo sapiens, UniProt P48039)
melatonin MT1 receptor, sequence (P48039 whole entry): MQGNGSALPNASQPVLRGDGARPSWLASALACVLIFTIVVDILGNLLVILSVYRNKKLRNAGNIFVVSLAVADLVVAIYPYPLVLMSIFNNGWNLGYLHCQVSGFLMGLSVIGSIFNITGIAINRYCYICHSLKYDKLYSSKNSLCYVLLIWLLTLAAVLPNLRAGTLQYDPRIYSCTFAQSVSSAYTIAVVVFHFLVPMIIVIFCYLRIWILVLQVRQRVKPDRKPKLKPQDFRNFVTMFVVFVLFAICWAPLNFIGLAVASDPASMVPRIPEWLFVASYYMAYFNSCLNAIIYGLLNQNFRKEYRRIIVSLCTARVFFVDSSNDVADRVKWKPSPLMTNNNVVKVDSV

## CCC(=O)NCC[C@@H]1CCc2ccc3c(c21)CCO3 [Ramelteon, (S)—N-[2-(1,6,7,8-tetrahydro-2H-indeno-[5,4-b]furan-8-yl)ethyl]propionamide]
Melatonin MT2 receptor
  affinity for melatonin MT2 receptor: high affinity
Melatonin MT1 receptor
  affinity for melatonin MT1 receptor: high affinity
